In patent publication US11485708B2, “Compounds for treatment of PD-L1 diseases” (CHEMOCENTRYX, INC., priority 2019, dated 2022):

molecular target: human PD-L1 / Human PD-1 (Homo sapiens (Human), UniProt Q9NZQ7); assay: Enzyme-Linked Immunosorbent Assay (ELISA), PD-1/PD-L1 binding; details: plates coated with human PD-L1, biotinylated human PD-1 added
Method: 96 Well plates were coated with 1 μg/mL of human PD-L1 (obtained from R&D) in PBS overnight at 4′° C. The wells were then blocked with 2% BSA in PBS (W/V) with 0.05% TWEEN-20 for 1 hour at 37′° C. The plates were washed 3 times with PBS/0.05% TWEEN-20 and the compounds were serial diluted (1:5) in dilution medium and added to the ELISA plates. Human PD-1 and biotin 0.3 μg/mL (ACRO Biosystems) were added and incubated for 1 hour at 37° C. then washed 3 times with PBS/0.05% TWEEN-20. A second block was performed with 2% BSA in PBS (WNV)/0.05% TWEEN-20 for 10 min at 37° C. and the plates were washed 3 times with PBS/0.05% TWEEN-20. Streptavidin-HIRP was added for 1 hour at 37° C. then the plates were washed 3 times with PBS/0.05% TWEEN-20. TMB substrate was added and reacted for 20 min at 37° C. A stop solution (2 N aqueous H2SO4) was added. The absorbance was read at 450 nm using a micro-plate spectrophotometer.

Chain of human PD-L1 / Human PD-1 (Q9NZQ7 19-239): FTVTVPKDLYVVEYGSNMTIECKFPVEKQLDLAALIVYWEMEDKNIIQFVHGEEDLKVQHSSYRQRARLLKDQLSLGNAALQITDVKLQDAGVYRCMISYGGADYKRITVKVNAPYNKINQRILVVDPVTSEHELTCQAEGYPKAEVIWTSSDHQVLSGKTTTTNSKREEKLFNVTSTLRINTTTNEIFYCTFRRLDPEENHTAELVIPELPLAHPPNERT

Question: With Cc1c(OCCCN2[C@H](C)CC[C@H]2C)cccc1-c1cccc(-c2ccc3c(c2)CC(C(=O)O)NC3)c1C (some centres unmarked) [Compd 1.068] as the compound, how does the IC50 read?
Answer: < 1000 nM

Question: Which IC50 does the source give for Cc1c(OCCCN2[C@H](C)CC[C@H]2C)cccc1-c1cccc(-c2ccc3c(c2)CC(C(=O)O)NC3)c1C (some centres unmarked) [Compd 1.064] here?
Answer: 1000 to 10000 nM

Question: For Cc1c(OCCCN2[C@H](C)CC[C@H]2C)cccc1-c1cccc(-c2ccc([C@@H](C)N)cc2)c1C [Compd 1.099], which IC50 is on record?
Answer: < 1000 nM

Question: Which IC50 does the source give for Cc1c(OCCCN2[C@H](C)CC[C@H]2C)cccc1-c1cccc(-c2ccc(CCN)cc2)c1C [Compd 1.118] here?
Answer: < 1000 nM

Question: Which IC50 does the source give for Cc1c(OCCCN2[C@H](C)CC[C@H]2C)cccc1-c1cccc(-c2ccc(CN(C)C)cc2)c1C [Compd 1.122] here?
Answer: < 1000 nM

Question: With COc1cc(CNCCCC(=O)O)cc(-c2cccc(-c3cccc(OCCCN4[C@H](C)CC[C@H]4C)c3C)c2C)c1 [Compd 1.065] as the compound, how does the IC50 read?
Answer: 1000 to 10000 nM

Question: Which IC50 does the source give for Cc1c(OCCCN2[C@H](C)CC[C@H]2C)cccc1-c1cccc(-c2ccc([C@H](C)N)cc2)c1C [Compd 1.098] here?
Answer: < 1000 nM

Question: For Cc1c(OCCCN2[C@H](C)CC[C@H]2C)cccc1-c1cccc(-c2cc(F)c(CNCCCC(=O)O)c(F)c2)c1C [Compd 1.061], which IC50 is on record?
Answer: < 1000 nM

Question: How did the IC50 turn out when COc1cc(-c2cccc(-c3cccc(-c4cc(F)c(CNC(C)C)c(OC)c4)c3C)c2C)cc(F)c1CNC(C)C [Compd 1.048] was run?
Answer: < 1000 nM

Question: How did the IC50 turn out when COc1c(-c2ccc3c(c2)CCNC3)cccc1-c1cccc(OCCCN2CCC2(C)C)c1C [Compd 1.088, 6-(3′-(3-(2,2-dimethylazetidin-1-yl)propoxy)-2-methoxy-2′-methyl-[1,1′-biphenyl]-3-yl)-1,2,3,4-tetrahydroisoquinoline] was run?
Answer: < 1000 nM

Question: For COc1cc(-c2cccc(-c3cccc(-c4cc(F)c(CNCC(=O)O)c(OC)c4)c3C)c2C)cc(F)c1CNCC(=O)O [Compd 1.062], which IC50 is on record?
Answer: < 1000 nM

Question: For C=Cc1c(-c2ccc3c(c2)CCNC3)cccc1-c1cccc(OCCCN2CCC2(C)C)c1C [Compd 1.076, 6-(3′-(3-(2,2-dimethylazetidin-1-yl)propoxy)-2′-methyl-2-vinyl-[1,1′-biphenyl]-3-yl)-1,2,3,4-tetrahydroisoquinoline], which IC50 is on record?
Answer: < 1000 nM

Question: COc1cc(-c2cccc(-c3cccc(-c4cc(F)c(CNCCS(=O)(=O)O)c(OC)c4)c3C)c2C)cc(F)c1CNCCS(=O)(=O)O [Compd 1.041, 2,2′-(((3,3′″-difluoro-5,5′″-dimethoxy-2′,2″-dimethyl-[1,1′:3′,1″:3″,1′″-quaterphenyl]-4,4′″-diyl)bis(methylene))bis(azanediyl))bis(ethane-1-sulfonic Acid)] was tested. Which IC50 did it give?
Answer: < 1000 nM

Question: CCOC(=O)CN1CCc2cc(-c3cccc(-c4cccc(OCCCN5[C@H](C)CC[C@H]5C)c4C)c3C)ccc2C1 [Compd 1.106] was tested. Which IC50 did it give?
Answer: 1000 to 10000 nM

Question: For Cc1c(OCCCN2[C@H](C)CC[C@H]2C)cccc1-c1cccc(-c2ccc(CN)cc2)c1C [Compd 1.121], which IC50 is on record?
Answer: < 1000 nM

Question: With Cc1c(OCCCN2CCC2(C)C)cccc1-c1cccc(-c2ccc3c(c2)CCNC3)c1F [Compd 1.090, 6-(3′-(3-(2,2-dimethylazetidin-1-yl)propoxy)-2-fluoro-2′-methyl-[1,1′-biphenyl]-3-yl)-1,2,3,4-tetrahydroisoquinoline] as the compound, how does the IC50 read?
Answer: < 1000 nM

Question: With Cc1c(OCCCN2[C@H](C)CC[C@H]2C)cccc1-c1cccc(-c2ccc3c(c2)CC(CO)NC3)c1C (some centres unmarked) [Compd 1.069] as the compound, how does the IC50 read?
Answer: < 1000 nM

Question: Which IC50 does the source give for COc1cc(-c2cccc(-c3cccc(-c4cc(F)c(CNCCO)c(OC)c4)c3C)c2C)cc(F)c1CNCCO [Compd 1.051, 2,2′-(((3,3′″-difluoro-5,5′″-dimethoxy-2′,2″-dimethyl-[1,1′:3′,1″:3″,1′″-quaterphenyl]-4,4′″-diyl)bis(methylene))bis(azanediyl))bis(ethan-1-ol)] here?
Answer: < 1000 nM

Question: With COc1cc(-c2cccc(-c3cccc(-c4cc(F)c(CCN)c(OC)c4)c3C)c2C)cc(F)c1CN [Compd 1.039] as the compound, how does the IC50 read?
Answer: < 1000 nM

Question: How did the IC50 turn out when COC(=O)[C@@H]1CCCCN1Cc1ccc(-c2cccc(-c3cccc(OCCCN4CCC(F)CC4)c3C)c2C)cc1 [Compd 1.072] was run?
Answer: 1000 to 10000 nM

Question: How did the IC50 turn out when COc1cc(-c2cccc(-c3cccc(-c4cc(F)c(CN(C)C[C@@H]5CCC(=O)N5)c(OC)c4)c3C)c2C)cc(F)c1CN(C)C[C@@H]1CCC(=O)N1 [Compd 1.047] was run?
Answer: < 1000 nM

Question: With Cc1c(OCCCN2CCC2(C)C)cccc1-c1cccc(-c2ccc3c(c2)CCNC3)c1C(F)(F)F [Compd 1.085] as the compound, how does the IC50 read?
Answer: 1000 to 10000 nM

Question: Which IC50 does the source give for Cc1c(OCCCN2CCC(C)(F)CC2)cccc1-c1cccc(-c2ccc3c(c2)CCNC3)c1C [Compd 1.104] here?
Answer: < 1000 nM

Question: How did the IC50 turn out when Cc1c(OCCCN2[C@H](C)CC[C@H]2C)cccc1-c1cccc(-c2ccc3c(c2)CCN(CCO)C3)c1C [Compd 1.107] was run?
Answer: < 1000 nM

Question: Which IC50 does the source give for CCOc1cc(-c2cccc(-c3cccc(OCCCN4[C@H](C)CC[C@H]4C)c3C)c2C)ccc1CN(C)C [Compd 1.075] here?
Answer: < 1000 nM

Question: Which IC50 does the source give for COc1cc(-c2cccc(-c3cccc4c3CCNC4)c2C)cc(F)c1CN [Compd 1.022] here?
Answer: 1000 to 10000 nM

Question: How did the IC50 turn out when COc1cc(-c2cccc(-c3cccc(-c4ccc(CN)c(F)c4)c3C)c2C)cc(F)c1CN [Compd 1.037] was run?
Answer: < 1000 nM

Question: For Cc1c(OCCCN2[C@H](C)CC[C@H]2C)cccc1-c1cccc(-c2ccc(CNCCC(=O)O)cc2)c1C [Compd 1.097], which IC50 is on record?
Answer: < 1000 nM

Question: Cc1c(OCCCN2CCC(F)CC2)cccc1-c1cccc(-c2ccc(CN)cc2F)c1C [Compd 1.082] was tested. Which IC50 did it give?
Answer: < 1000 nM

Question: With COC(=O)C1=Cc2cc(-c3cccc(-c4cc(F)c(CN)c(OC)c4)c3C)ccc2OC1 [Compd 1.016, Methyl 6-(4′-(aminomethyl)-3′-fluoro-5′-methoxy-2-methyl-[1,1′-biphenyl]-3-yl)-2H-chromene-3-carboxylate] as the compound, how does the IC50 read?
Answer: < 1000 nM

Question: Which IC50 does the source give for Cc1c(OCCCN2CCC(F)CC2)cccc1-c1cccc(-c2ccc3c(c2C)CCNC3)c1C [Compd 1.087] here?
Answer: 1000 to 10000 nM

Question: COc1cc(-c2cccc(-c3cccc(OCCCN4[C@H](C)CC[C@H]4C)c3C)c2C)cc2c1CNCC2 [Compd 1.060] was tested. Which IC50 did it give?
Answer: < 1000 nM

Question: With Cc1c(OCCCN2[C@H](C)CC[C@H]2C)cccc1-c1cccc(-c2ccc3c(c2)CCN(CC(=O)O)C3)c1C [Compd 1.108] as the compound, how does the IC50 read?
Answer: < 1000 nM

Question: With Cc1c(OCCCN2CCC(F)CC2)cccc1-c1cccc(-c2ccc(CN)cc2Cl)c1C [Compd 1.096] as the compound, how does the IC50 read?
Answer: 1000 to 10000 nM

Question: COc1cc(-c2cccc(-c3cccc(-c4ccc5c(c4)CCNC5)c3C)c2C)cc(F)c1CNCCO [Compd 1.040, 2-(((3-fluoro-5-methoxy-2′,2″-dimethyl-3″-(1,2,3,4-tetrahydroisoquinolin-6-yl)-[1,1′:3′,1″-terphenyl]-4-yl)methyl)amino)ethan-1-ol] was tested. Which IC50 did it give?
Answer: < 1000 nM

Question: Which IC50 does the source give for Cc1c(OCCCN2CCC(O)CC2)cccc1-c1cccc(-c2ccc3c(c2)CCNC3)c1C [Compd 1.111] here?
Answer: < 1000 nM

Question: Which IC50 does the source give for Cc1c(OCCCN2CCC(F)CC2)cccc1-c1cccc(-c2ccc(CN(C)C)c(Cl)c2)c1C [Compd 1.081] here?
Answer: < 1000 nM

Question: For COc1cc(-c2cccc(-c3cccc(OCCCN4CCC(F)CC4)c3C)c2C)cc(OC)c1CN(C)C [Compd 1.079], which IC50 is on record?
Answer: 1000 to 10000 nM

Question: COc1cc(-c2cccc(-c3cccc(-c4cc(F)c(CCN)c(OC)c4)c3C)c2C)cc(F)c1CCN [Compd 1.045] was tested. Which IC50 did it give?
Answer: < 1000 nM

Question: Which IC50 does the source give for COc1cc(-c2cccc(-c3cccc(-c4cc(F)c(CN)c(OC)c4)c3C)c2C)ccc1CN [Compd 1.036] here?
Answer: < 1000 nM

Question: With COc1cc(-c2cccc(-c3cccc(OCCCN4CCC(F)CC4)c3C)c2C)ccc1CN(C)C [Compd 1.094] as the compound, how does the IC50 read?
Answer: < 1000 nM

Question: Cc1c(OCCCN2[C@H](C)CC[C@H]2C)cccc1-c1cccc(-c2ccc(C(C)(C)N)cc2)c1C [Compd 1.119] was tested. Which IC50 did it give?
Answer: < 1000 nM

Question: For COc1cc(-c2cccc(-c3cccc(-c4cc(F)c(CN5CCC(O)CC5)c(OC)c4)c3C)c2C)cc(F)c1CN1CCC(O)CC1 [Compd 1.043, 1,1′-((3,3′″-difluoro-5,5′″-dimethoxy-2′,2″-dimethyl-[1,1′:3′,1″:3″,1′″-quaterphenyl]-4,4′″-diyl)bis(methylene))bis(piperidin-4-ol)], which IC50 is on record?
Answer: < 1000 nM

Question: How did the IC50 turn out when Cc1c(OCCCN2CCC2(C)C)cccc1-c1cccc(-c2ccc3c(c2)CCNC3)c1 [Compd 1.103, 6-(3′-(3-(2,2-dimethylazetidin-1-yl)propoxy)-2′-methyl-[1,1′-biphenyl]-3-yl)-1,2,3,4-tetrahydroisoquinoline] was run?
Answer: 1000 to 10000 nM

Question: Which IC50 does the source give for COc1cc(-c2cccc(-c3cccc(-c4cc(F)c(CNCCC(=O)O)c(OC)c4)c3C)c2C)cc(F)c1CNCCC(=O)O [Compd 1.055] here?
Answer: < 1000 nM

Question: For Cc1c(OCCCN2[C@H](C)CC[C@H]2C)cccc1-c1cccc(-c2ccc(CNCCCC(=O)O)cc2)c1C [Compd 1.100], which IC50 is on record?
Answer: < 1000 nM

Question: Which IC50 does the source give for Cc1c(-c2ccc3c(c2)CCNC3)cccc1-c1ccc2c(c1)OCCO2 [Compd 1.126] here?
Answer: < 1000 nM

Question: Which IC50 does the source give for COc1cc(-c2cccc(-c3cccc(-c4cc(F)c(CNCCCCC(=O)O)c(OC)c4)c3C)c2C)cc(F)c1CNCCCCC(=O)O [Compd 1.054] here?
Answer: < 1000 nM

Question: Cc1c(OCCCN2CCC(F)CC2)cccc1-c1cccc(-c2ccc(CN)cc2)c1C [Compd 1.077] was tested. Which IC50 did it give?
Answer: < 1000 nM

Question: How did the IC50 turn out when COc1cc(-c2cccc(-c3cccc(-c4cc(F)c(CNCCCC(=O)O)c(OC)c4)c3C)c2C)cc(F)c1CNCCCC(=O)O [Compd 1.063, 4,4′-(((3,3′″-difluoro-5,5′″-dimethoxy-2′,2″-dimethyl-[1,1′:3′,1″:3″,1′″-quaterphenyl]-4,4′″-diyl)bis(methylene))bis(azanediyl))dibutyric acid] was run?
Answer: < 1000 nM

Question: How did the IC50 turn out when Cc1c(OCCCN2[C@H](C)CC[C@H]2C)cccc1-c1cccc(-c2ccc(C(C)N)cc2)c1C (some centres unmarked) [Compd 1.113] was run?
Answer: < 1000 nM

Question: How did the IC50 turn out when COc1cc(-c2cccc(-c3cccc(OCCCN4[C@H](C)CC[C@H]4C)c3C)c2C)ccc1CN(C)C [Compd 1.073] was run?
Answer: < 1000 nM

Question: Which IC50 does the source give for COc1cc(-c2cccc(-c3cccc(OC4CCCNC4)c3C)c2C)cc(F)c1CN (centres unmarked) [Compd 1.014] here?
Answer: 1000 to 10000 nM
